Columns and labels:
[1] = Solubility and loading of PTX; assay type: physicochemical
Method: The PEG-HCCs were purified by sequential dialysis in DMF and water. This was followed by passage through a PD-10 desalting column to remove any coordinated metals or unbound PEG. […] The particles were water soluble. See Berlin et al. for AFM data.
PEG-HCCs were loaded with PTX by dropwise addition of PTX in methanol (5 mg in 1 mL) to a rapidly stirring solution of PEG-HCCs in water (100 mg/L concentration of core HCCs, 5 mL). Next, the solution was bath-sonicated, concentrated to 3 mL by rotary evaporation (to remove the methanol), and then diluted back to the original volume (5 mL) with water. This provided a translucent solution of PTX non-covalently associated with PEG-HCCs (PTX/PEG-HCCs). […] In other words, it is visually apparent if PTX is precipitating because the solution becomes a milky white color when the PTX is overloaded. Applicants have observed that the maximum loading concentration of PTX in the PEG-HCCs in the experiments performed to date is about 12 mg/mL.

bEnd.3 cells = test: Antimycin A induced oxidative stress in bEnd.3 cells, DHE flow cytometry (Example 13.1); assay type: cell-based; conditions: treatment after Antimycin A
Method: Mean fluorescence intensity (indicative of oxidative stress) was measured using as control viable cells of 4 separated experiments treated with Antimycin A (AntA) and stained with dihydroethidine (DHE) (“AntA+DHE”). Results are given as % control (unstained cells) to account for minor differences in DHE concentrations and laser fluctuations.
Accordingly, the next series of experiments employed flow cytometry to assess antioxidant effectiveness of PEG-HCCs and targeted PEG-HCCs in cultured brain endothelial cells (b.End3 cells). For these experiments, bEnd.3 cells were cultured to 50-80% confluence in 6 well plates in 2 mL of culture media. The cells were treated with 10 μL of 2 mM Antimycin A (AntA, shown to induce intracellular superoxide radical production). Five minutes later, 1×PBS, PEG-HCC, psPEG-HCC or super oxide dismutase (SOD) was added. The cells were then incubated at 37° C. for 5 minutes. At that time, either 2 μL of 10 mM DHE or a 50% DMSO solution in 1×PBS (control) was added to the wells. The cells were then incubated for another 30 minutes. Next, the cells were placed on ice, trypsinized, and washed twice. The cells were then, counted and stained with SytoxRed (viability stain). 10,000 cells were analyzed per treatment group using the TXRED channel (DHE) and SytoxRed to assess cell viability.

| solubility in water [1] | SMILES | level of oxidative stress (DHE mean fluorescence intensity) (bEnd.3 cells) |
| --- | --- | --- |
| insoluble in water | CC(=O)O[C@H]1C(=O)[C@@]2(C)[C@H]([C@H](OC(=O)c3ccccc3)[C@]3(O)C[C@H](OC(=O)[C@H](O)[C@@H](NC(=O)c4ccccc4)c4ccccc4)C(C)=C1C3(C)C)[C@]1(OC(C)=O)CO[C@@H]1C[C@@H]2O [PTX, Paclitaxel] |  |
|  | Cc1c(C)c2c(c(C)c1O)CCC(C)(C(=O)O)O2 (centres unmarked) [Trolox] | not effective |

Reference: US8916606B2, “Therapeutic compositions and methods for targeted delivery of active agents” (William Marsh Rice University, priority 2009, dated 2014)
